Experimental data reported in PubChem BioAssay AID192 (DTP/NCI, 2004).
Where “and” joins values, the source holds several entries; their conditions need not be identical. Equal entries are not always repeated. Inconclusive results and toxic doses are left out. The calls were made as follows: active = survival T/C of 150% or more; inactive = T/C below 125% in these data. Peptide text beside a SMILES is read from it. * marks the point of attachment. Boc = CC(C)(C)OC(=O)*

Tested on: BDF1 mice, B16 melanoma ip, median survival T/C
Experiment: NCI In Vivo Anticancer Drug Screen. Data for tumor model B16 Melanoma (intraperitoneal) in B6D2F1 (BDF1) mice
Conditions: endpoint: median survival time, higher = longer survival
Method in brief: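 In this screen, activity was judged from survival or tumor size in treated versus vehicle-treated tumor-bearing mice, reported as T/C.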

[1] = dose: 6.25 mg/kg/injection, schedule: Q01DX009 (ip), vehicle: saline
[2] = dose: 6.25 mg/kg/injection, schedule: Q04DX003 (ip), vehicle: saline
[3] = dose: 12.5 mg/kg/injection, schedule: Q01DX009 (ip), vehicle: saline
[4] = dose: 12.5 mg/kg/injection, schedule: Q04DX003 (ip), vehicle: saline
[5] = dose: 16.0 mg/kg/injection, schedule: Q01DX009 (ip), vehicle: water
[6] = dose: 25.0 mg/kg/injection, schedule: Q01DX009 (ip), vehicle: saline
[7] = dose: 32.0 mg/kg/injection, schedule: Q01DX009 (ip), vehicle: water
[8] = dose: 100.0 mg/kg/injection, schedule: Q01DX009 (ip), vehicle: saline
[9] = dose: 50.0 mg/kg/injection, schedule: Q01DX009 (ip), vehicle: Klucel (hydroxypropylcellulose) (HPC)
[10] = dose: 100.0 mg/kg/injection, schedule: Q01DX009 (ip), vehicle: Klucel (hydroxypropylcellulose) (HPC)
[11] = dose: 200.0 mg/kg/injection, schedule: Q01DX009 (ip), vehicle: Klucel (hydroxypropylcellulose) (HPC)
[12] = dose: 400.0 mg/kg/injection, schedule: Q01DX009 (ip), vehicle: Klucel (hydroxypropylcellulose) (HPC)
[13] = dose: 50.0 mg/kg/injection, schedule: Q01DX009 (ip), vehicle: saline

Measured: T/C

CC[C@@]1(O)C[C@H](OC2CC(N(C)C)C(OC3CC(O)C(OC4CCC(=O)C(C)O4)C(C)O3)C(C)O2)c2c(cc3c(c2O)C(=O)c2c(O)ccc(O)c2C3=O)[C@H]1C(=O)OC (some centres undefined)
inactive: dose: 0.25 mg/kg/injection, schedule: Q01DX009 (ip), vehicle: saline 119 % of control | dose: 0.25 mg/kg/injection, schedule: Q01DX009 (ip), vehicle: water 110 % of control | dose: 0.37 mg/kg/injection, schedule: Q01DX009 (ip), vehicle: saline 102 % of control | dose: 0.5 mg/kg/injection, schedule: Q01DX009 (ip), vehicle: saline 114 % of control | dose: 0.5 mg/kg/injection, schedule: Q01DX009 (ip), vehicle: water 120 % of control | dose: 0.75 mg/kg/injection, schedule: Q01DX009 (ip), vehicle: saline 113 % of control | dose: 0.75 mg/kg/injection, schedule: Q04DX003 (ip), vehicle: saline 91 % of control | dose: 1.5 mg/kg/injection, schedule: Q04DX003 (ip), vehicle: saline 91 % of control and 106 % of control | dose: 2.0 mg/kg/injection, schedule: Q01DX009 (ip), vehicle: saline 107 % of control | dose: 3.0 mg/kg/injection, schedule: Q04DX003 (ip), vehicle: saline 108 % of control and 115 % of control | dose: 3.6 mg/kg/injection, schedule: Q01DX001 (ip), vehicle: water 100 % of control and 102 % of control | dose: 6.0 mg/kg/injection, schedule: Q01DX001 (ip), vehicle: water 92 % of control and 102 % of control | dose: 6.0 mg/kg/injection, schedule: Q04DX003 (ip), vehicle: saline 88 % of control and 97 % of control | dose: 10.0 mg/kg/injection, schedule: Q01DX001 (ip), vehicle: water 101 % of control and 102 % of control | dose: 16.7 mg/kg/injection, schedule: Q01DX001 (ip), vehicle: water 106 % of control
active: dose: 1.0 mg/kg/injection, schedule: Q01DX009 (ip), vehicle: saline 157 % of control and 168 % of control | dose: 1.5 mg/kg/injection, schedule: Q01DX009 (ip), vehicle: saline 150 % of control

COc1cc2cc3c4cc(OC)c(OC)cc4cc[n+]3c(C)c2cc1OC (tested in a mixture with another compound)
inactive: [1] 106 % of control | dose: 6.25 mg/kg/injection, schedule: Q04DX003 (ip), vehicle: saline with Tween-80 88 % of control | [2] 107 % of control | dose: 8.0 mg/kg/injection, schedule: Q01DX009 (ip), vehicle: Klucel (hydroxypropylcellulose) (HPC) 90 % of control and 91 % of control | dose: 8.0 mg/kg/injection, schedule: Q01DX009 (ip), vehicle: clinical formulation 100 % of control and 109 % of control | dose: 8.0 mg/kg/injection, schedule: Q01DX009 (ip), vehicle: other 99 % of control and 107 % of control | dose: 8.0 mg/kg/injection, schedule: Q01DX009 (ip), vehicle: water 87 % of control | [3] 93 % of control | dose: 12.5 mg/kg/injection, schedule: Q01DX009 (ip), vehicle: water 95 % of control | dose: 12.5 mg/kg/injection, schedule: Q04DX003 (ip), vehicle: saline with Tween-80 100 % of control | [4] 105 % of control | dose: 16.0 mg/kg/injection, schedule: Q01DX009 (ip), vehicle: Klucel (hydroxypropylcellulose) (HPC) 91 % of control and 92 % of control and 96 % of control | dose: 16.0 mg/kg/injection, schedule: Q01DX009 (ip), vehicle: clinical formulation 94 % of control and 106 % of control | dose: 16.0 mg/kg/injection, schedule: Q01DX009 (ip), vehicle: other 97 % of control and 111 % of control and 123 % of control | [5] 96 % of control and 106 % of control | [6] 87 % of control | dose: 25.0 mg/kg/injection, schedule: Q01DX009 (ip), vehicle: water 109 % of control | dose: 25.0 mg/kg/injection, schedule: Q04DX003 (ip), vehicle: saline with Tween-80 102 % of control | dose: 25.0 mg/kg/injection, schedule: Q04DX003 (ip), vehicle: saline 102 % of control | dose: 32.0 mg/kg/injection, schedule: Q01DX009 (ip), vehicle: Klucel (hydroxypropylcellulose) (HPC) 90 % of control and 93 % of control and 95 % of control | dose: 32.0 mg/kg/injection, schedule: Q01DX009 (ip), vehicle: clinical formulation 96 % of control and 105 % of control | dose: 32.0 mg/kg/injection, schedule: Q01DX009 (ip), vehicle: other 103 % of control and 105 % of control (2×) | [7] 94 % of control and 111 % of control | dose: 33.0 mg/kg/injection, schedule: Q01DX009 (ip), vehicle: saline with Tween-80 105 % of control | dose: 50.0 mg/kg/injection, schedule: Q01DX009 (ip), vehicle: saline with Tween-80 110 % of control | dose: 50.0 mg/kg/injection, schedule: Q01DX009 (ip), vehicle: water 93 % of control | dose: 50.0 mg/kg/injection, schedule: Q04DX003 (ip), vehicle: saline with Tween-80 97 % of control | dose: 50.0 mg/kg/injection, schedule: Q04DX003 (ip), vehicle: saline 100 % of control | dose: 64.0 mg/kg/injection, schedule: Q01DX009 (ip), vehicle: Klucel (hydroxypropylcellulose) (HPC) 89 % of control and 91 % of control and 94 % of control | dose: 64.0 mg/kg/injection, schedule: Q01DX009 (ip), vehicle: clinical formulation 104 % of control | dose: 64.0 mg/kg/injection, schedule: Q01DX009 (ip), vehicle: other 100 % of control and 104 % of control | dose: 75.0 mg/kg/injection, schedule: Q01DX009 (ip), vehicle: saline with Tween-80 101 % of control | [8] 106 % of control | dose: 100.0 mg/kg/injection, schedule: Q01DX009 (ip), vehicle: water 91 % of control | dose: 100.0 mg/kg/injection, schedule: Q04DX003 (ip), vehicle: saline 94 % of control | dose: 128.0 mg/kg/injection, schedule: Q01DX009 (ip), vehicle: Klucel (hydroxypropylcellulose) (HPC) 91 % of control and 93 % of control | dose: 200.0 mg/kg/injection, schedule: Q04DX003 (ip), vehicle: saline with Tween-80 88 % of control | dose: 200.0 mg/kg/injection, schedule: Q04DX003 (ip), vehicle: saline 100 % of control

C[C@H](CN1CC(=O)NC(=O)C1)N1CC(=O)NC(=O)C1
inactive: dose: 8.0 mg/kg/injection, schedule: Q01DX009 (ip), vehicle: saline 108 % of control | dose: 16.0 mg/kg/injection, schedule: Q01DX009 (ip), vehicle: saline 120 % of control | [5] 107 % of control | dose: 25.0 mg/kg/injection, schedule: Q04DX003 (ip), vehicle: water 111 % of control | [7] 111 % of control | dose: 50.0 mg/kg/injection, schedule: Q04DX003 (ip), vehicle: water 94 % of control | dose: 100.0 mg/kg/injection, schedule: Q04DX003 (ip), vehicle: water 106 % of control | dose: 128.0 mg/kg/injection, schedule: Q01DX009 (ip), vehicle: water 101 % of control | dose: 200.0 mg/kg/injection, schedule: Q04DX003 (ip), vehicle: water 107 % of control

CN(C1=NS(=O)(=O)N=C(N(C)c2ccccc2)O1)c1ccccc1
inactive: dose: 25.0 mg/kg/injection, schedule: Q01DX009 (ip), vehicle: Klucel (hydroxypropylcellulose) (HPC) 101 % of control | [9] 108 % of control | [10] 96 % of control | [11] 93 % of control | [12] 87 % of control

CC(Cc1ccccc1)NCCn1cnc2c1c(=O)n(C)c(=O)n2C (centres undefined)
inactive: dose: 3.12 mg/kg/injection, schedule: Q01DX009 (ip), vehicle: saline 112 % of control | [1] 115 % of control | [3] 100 % of control | [6] 109 % of control | [13] 115 % of control

Cc1cc2c(cc1C)NC(C)CC(=O)N2 (centres undefined)
inactive: [9] 106 % of control | [10] 108 % of control | [11] 106 % of control

CS(=O)(=O)[O-].CS(=O)(=O)[O-].NC1CCCCC1N.[Pt+4] (centres undefined)
active: dose: 1.25 mg/kg/injection, schedule: Q01DX009 (ip), vehicle: other 159 % of control
inactive: dose: 0.62 mg/kg/injection, schedule: Q01DX009 (ip), vehicle: other 124 % of control

Nc1nc(=S)c2[nH]c(N=Nc3ccc(S(=O)(=O)O)cc3)nc2[nH]1
inactive: [2] 107 % of control | [4] 109 % of control

CCCCC[C@H](CN(C)C)[C@H](O)/C=C/c1ccc(Cl)cc1
inactive: [1] 95 % of control | [3] 100 % of control | [6] 104 % of control

COc1cc(NC(=O)CC(C)=O)cc2c(C)cc(=O)n(C)c12
inactive: [10] 96 % of control | [11] 100 % of control | [12] 100 % of control

CC(C)(C)OC(=O)NCC(=O)NCC(=O)O (Boc-Gly-Gly-OH)
inactive: [13] 94 % of control | [8] 96 % of control
